Source: ChEMBL document CHEMBL1133495 (Bioorg Med Chem Lett, 2000)

Tests used:
[1] = target: Sodium-dependent noradrenaline transporter (Homo sapiens, UniProt P23975); assay: The compound was tested for inhibition of [3H]norepinephrine uptake in HEK cells by expressing cDNA for human norepinephrine transporter; format: cell-based, HEK293
[2] = target: Sodium-dependent dopamine transporter (Homo sapiens, UniProt Q01959); assay: Inhibition of [3H]dopamine uptake in HEK cells expressing human Dopamine transporter; format: cell-based, HEK293
Sodium-dependent dopamine transporter, sequence (Q01959 whole entry): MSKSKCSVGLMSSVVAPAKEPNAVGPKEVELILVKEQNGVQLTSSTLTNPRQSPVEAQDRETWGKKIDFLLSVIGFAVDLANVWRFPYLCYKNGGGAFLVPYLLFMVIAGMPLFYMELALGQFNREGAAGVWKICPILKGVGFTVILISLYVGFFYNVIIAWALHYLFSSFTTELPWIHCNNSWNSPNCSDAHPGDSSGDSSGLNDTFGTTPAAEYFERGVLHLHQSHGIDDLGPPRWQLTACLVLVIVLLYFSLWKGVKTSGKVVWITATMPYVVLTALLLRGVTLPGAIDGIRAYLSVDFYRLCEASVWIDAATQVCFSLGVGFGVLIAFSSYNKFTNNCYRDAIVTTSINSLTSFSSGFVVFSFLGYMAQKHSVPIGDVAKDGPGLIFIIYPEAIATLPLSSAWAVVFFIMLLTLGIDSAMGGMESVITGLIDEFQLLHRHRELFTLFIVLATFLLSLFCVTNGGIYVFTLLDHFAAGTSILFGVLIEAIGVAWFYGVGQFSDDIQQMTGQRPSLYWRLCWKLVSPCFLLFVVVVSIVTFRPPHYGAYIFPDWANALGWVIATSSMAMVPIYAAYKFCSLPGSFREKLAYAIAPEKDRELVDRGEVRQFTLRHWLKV

[3] = target: Sodium-dependent serotonin transporter (Homo sapiens, UniProt P31645); assay: The compound was tested for inhibition of [3H]-5-hydroxy tryptamine uptake in HEK cells by expressing cDNA for human […]; format: cell-based, HEK293
Sodium-dependent serotonin transporter, sequence (P31645 whole entry): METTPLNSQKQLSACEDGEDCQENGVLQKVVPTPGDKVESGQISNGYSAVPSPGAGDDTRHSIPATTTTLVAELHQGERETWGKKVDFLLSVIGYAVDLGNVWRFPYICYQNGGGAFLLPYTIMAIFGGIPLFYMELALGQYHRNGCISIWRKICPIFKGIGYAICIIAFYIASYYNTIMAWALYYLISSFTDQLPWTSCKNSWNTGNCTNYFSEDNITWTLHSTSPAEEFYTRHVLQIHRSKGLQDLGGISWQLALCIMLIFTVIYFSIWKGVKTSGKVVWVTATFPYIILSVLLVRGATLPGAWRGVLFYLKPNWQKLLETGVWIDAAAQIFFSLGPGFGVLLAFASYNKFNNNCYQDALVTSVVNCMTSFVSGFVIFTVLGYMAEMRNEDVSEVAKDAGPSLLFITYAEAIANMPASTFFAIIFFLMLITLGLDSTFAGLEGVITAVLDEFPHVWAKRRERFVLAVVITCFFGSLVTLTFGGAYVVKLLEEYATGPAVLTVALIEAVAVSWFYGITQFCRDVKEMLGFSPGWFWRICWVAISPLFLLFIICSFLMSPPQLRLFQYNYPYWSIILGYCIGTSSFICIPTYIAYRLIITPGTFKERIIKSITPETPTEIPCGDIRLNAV

[4] = target: Monoamine transporters; serotonin & dopamine (Homo sapiens) (UniProt P31645+Q01959); assay: Ratio of 5-hydroxy tryptamine and dopamine transporter inhibition; format: protein assay
Monoamine transporters; serotonin & dopamine (Homo sapiens), sequence (P31645 whole entry, looked up): as the sequence (P31645 whole entry) above
Monoamine transporters; serotonin & dopamine (Homo sapiens), sequence (Q01959 whole entry, looked up): as the sequence (Q01959 whole entry) above

Sodium-dependent noradrenaline transporter, sequence (P23975 whole entry): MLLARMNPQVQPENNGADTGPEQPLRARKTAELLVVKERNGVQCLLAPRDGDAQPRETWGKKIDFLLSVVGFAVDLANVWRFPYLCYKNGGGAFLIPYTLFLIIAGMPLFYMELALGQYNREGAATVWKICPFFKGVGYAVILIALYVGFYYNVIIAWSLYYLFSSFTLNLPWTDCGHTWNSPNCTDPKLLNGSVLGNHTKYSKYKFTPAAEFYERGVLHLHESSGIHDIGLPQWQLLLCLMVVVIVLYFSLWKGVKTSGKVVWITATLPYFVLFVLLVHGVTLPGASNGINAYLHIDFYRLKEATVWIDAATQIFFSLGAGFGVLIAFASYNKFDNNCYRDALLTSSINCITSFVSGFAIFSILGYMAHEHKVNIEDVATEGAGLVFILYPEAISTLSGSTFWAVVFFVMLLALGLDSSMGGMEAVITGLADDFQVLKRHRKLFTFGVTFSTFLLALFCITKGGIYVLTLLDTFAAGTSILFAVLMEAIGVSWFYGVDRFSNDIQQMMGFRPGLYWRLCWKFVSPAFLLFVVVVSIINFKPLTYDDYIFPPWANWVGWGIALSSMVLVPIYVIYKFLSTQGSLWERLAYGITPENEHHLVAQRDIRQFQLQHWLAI

| SMILES | IC50 [1] [µM] | IC50 [2] [µM] | IC50 [3] [µM] | Ratio [4] |
| --- | --- | --- | --- | --- |
| CCCC1C2C3CCN2[C@H](C3)C[C@@H]1c1ccc(C)cc1 (stereo partly drawn) | 0.109 | 0.57 | – | – |
| O=C1CN2C3CC[C@@H]2C[C@H](c2ccc(F)cc2)C13 | 0.62 | 3.32 | 0.251 | 0.076 |
| CCC[C@@]1(O)CN2C3CC[C@@H]2C[C@H](c2ccc(C)cc2)C31 | 0.018 | 0.373 | 0.041 | 0.11 |
| Cc1ccc([C@H]2C[C@H]3CCC4C2C(=O)CN43)cc1 | 0.11 | 0.538 | 0.068 | 0.13 |
| Cc1ccc([C@H]2C[C@H]3CCC4C2[C@](C)(O)CN43)cc1 | 0.296 | 0.39 | 0.147 | 0.38 |
| Cc1ccc([C@H]2C[C@H]3CCC4C2[C@@](O)(c2ccccc2)CN43)cc1 | 0.011 | – | 0.0079 | – |
| C=C1CN2C3CC[C@@H]2C[C@H](c2ccc(C)cc2)C13 | 0.0022 | 0.067 | 0.033 | 0.49 |
| Cc1ccc([C@H]2C[C@H]3CCC4C2[C@@](O)(c2ccc(Cl)cc2)CN43)cc1 | 0.023 | 0.044 | 0.013 | 0.3 |
